Positions of bridges follow the written chain, without caps; N, C: chain ends. Residues, ends and D or L forms follow the SMILES beside them.
How the values were obtained:
[1] = target: T1, rat ASIC3 channel (Rattus norvegicus, UniProt O35240); assay: Two-electrode voltage clamp, rat ASIC3 in X. laevis oocytes; assay type: cell-based; conditions: pH 5.5 stimulus, mean ± S.E.M., 5 cells; for nH: inhibition of rat ASIC3, conditioning pH 7.4; for IC50: rat ASIC3, X. laevis oocytes, TEVC, Vh −50 mV, conditioning pH 7.4, peptide 30 s before stimulus
T1 construct: expressed in transfected cells; host or cells: Xenopus laevis oocytes injected with mRNA made from pcDNA3.1-rat ASIC3
T1 sequence (O35240 1-533): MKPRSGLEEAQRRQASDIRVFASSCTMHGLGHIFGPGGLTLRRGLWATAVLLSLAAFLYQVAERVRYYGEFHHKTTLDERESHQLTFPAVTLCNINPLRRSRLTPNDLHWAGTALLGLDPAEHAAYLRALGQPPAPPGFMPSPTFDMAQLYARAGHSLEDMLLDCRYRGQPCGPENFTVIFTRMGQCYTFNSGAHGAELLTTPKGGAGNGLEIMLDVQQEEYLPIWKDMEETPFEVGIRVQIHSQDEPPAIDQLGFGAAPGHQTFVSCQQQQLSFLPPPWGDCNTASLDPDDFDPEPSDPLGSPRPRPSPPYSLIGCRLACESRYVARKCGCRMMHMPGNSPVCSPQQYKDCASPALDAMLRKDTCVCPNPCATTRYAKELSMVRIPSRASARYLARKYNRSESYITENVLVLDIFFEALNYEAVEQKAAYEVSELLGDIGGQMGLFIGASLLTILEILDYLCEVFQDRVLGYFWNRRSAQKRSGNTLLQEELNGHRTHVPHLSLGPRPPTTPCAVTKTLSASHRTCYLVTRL
Description: Figure 3 The effect of mutant peptides S16K and A23K on rat ASIC1a and ASIC3 channels. […] (B) Dose–response curves for the inhibitory effect of mutant peptides on ASIC1a. Each data point represents data from 5 cells. (C) Representative current traces of Ugr9-1, S16K, and A23K at a concentration of 12.5 µM on ASIC3. […] Each point represents data from 5 cells. The depicted currents were induced by a pH 5.5 stimulus following a conditioning pH of 7.4, with peptides applied for 30 s before the pH stimulus. The holding potential (Vh) was −50 mV, and the time interval between applications ranged from 1 to 2 min. Data are presented as mean ± S.E.M.
A small portion of the ovary was isolated from frogs under anesthesia induced by a 0.17% solution of procaine methanesulphonate (MS222) (Sigma), followed by treatment with collagenase (1 mg/mL) at room temperature for 2 h. Oocytes at stages IV and V, devoid of follicular membranes, were transferred to ND-96 medium (containing 96 mM NaCl, 5 mM HEPES, 2 mM KCl, 1.8 mM CaCl2, 1 mM MgCl2, pH 7.4). mRNA synthesis was performed from pcDNA3.1 vectors (Invitrogen, Carlsbad, CA, USA) containing the rat ASIC3 gene, as well as pCI vectors containing genes for rat ASIC1a, its mutant analogues, and ASIC1b. mRNA (2.5–10 ng) was then injected into the oocytes. For the ASIC1a/3 heteromeric channels, the mRNA encoding the ASIC1a and ASIC3 subunits were injected in a 1:5 ratio, respectively. Subsequently, the oocytes were incubated for 2–3 days at a temperature of 17–19 °C in ND96 medium supplemented with gentamicin and streptomycin (20 µg/mL each).
Whole-cell electrophysiological recordings of ASIC channels were conducted using a two-electrode voltage-clamp setup. Microelectrodes were filled with 3 M KCl. Recordings from oocytes were carried out at a holding potential of −50 mV, with data filtered at 10 Hz and sampled at a rate of 100 Hz using an L780M ADC (LCard, Moscow, Russia). The synchronized delivery of solutions into the chamber and recording of electrophysiological results were carried out using in-house software v.2. Activation of ASIC channels occurred through rapid pH changes in the solution, achieved by replacing the working solution in the chamber with ND96-based solutions at varying pH levels. Specifically, HEPES was substituted with 10 mM MES for pH 5.5–6.5 and MOPS for pH 6.7–7.0.
Fresh peptide solutions were meticulously prepared in ND96 buffer with a pH of 7.43 immediately before experiments, with strict control over the pH levels. Peptides were applied for 30 s at a conditioning pH of 7.43 before acid stimulation of the channel. The interval between applications was maintained at a minimum of 1.5 to 2 min.
Electrophysiological data analysis was conducted using OriginPro 2018 software (OriginLab, Northampton, MA, USA). Dose–response relationships for Ugr9a-1, S16K, and A23K peptides were fitted using a Hill function: F1(x) = A − A/(1 + (x/IC50)^nH), where F1(x) represents the amplitude of the current at concentration x of the peptide, A is the maximum amplitude of the current, IC50 is the half-maximum inhibitory concentration of the peptide, and nH is the Hill coefficient.

[2] = Acetic acid-induced writhing (AAW pain model); assay type: in vivo, ICR mice; conditions: for reduction of number of writhes, significance by dose: 0.002, 0.02, 0.2 mg/kg i.m.
Description: In both the AAW and CFA-induced hyperalgesia, Ugr9-1 and A23K peptides were administered intramuscularly one hour before the experiments at doses of 0.002, 0.02, and 0.2 mg/kg. In the AAW test, analgesic efficacy was evaluated by assessing the reduction in the number of involuntary writhing episodes induced by intraperitoneal injection of a 0.6% acetic acid solution.
Adult male ICR mice (Animal Breeding Facility Branch of Shemyakin–Ovchinnikov Institute of Bioorganic Chemistry, Russian Academy of Sciences, Pushchino, Russia), weighing 20–25 g, were utilized. Animals were housed under controlled conditions, with a room temperature of 23 ± 2 °C, a 12 h light–dark cycle, and ad libitum access to food and water. Test substances were dissolved in saline. Peptides (Ugr9-1 and A23K at doses of 0.002, 0.02, and 0.2 mg/kg) and saline (for the control group) were administered intramuscularly 60 min prior to testing.
The abdominal constriction test of visceral pain (acetic acid-induced writhing pain model) and hyperalgesia induced by complete Freund’s adjuvant (CFA-induced inflammatory pain model) were performed as previously described.
Statistical analysis was conducted using analysis of variance (ANOVA) with post hoc Tukey’s test, and data are presented as mean ± standard deviation (S.D.).

[3] = one hour before testing, 0.6% acetic acid i.p., n = 7

Compound | nH [1] | IC50 [1] [µM] | reduction of writhing, times less effective than Ugr9-1 ([2]; 0.02 mg/kg i.m., versus Ugr9-1) [times] | reduction of number of writhes, significance by dose [2, 3] | inhibition of number of writhes (maximum effect) ([2]; 0.02 mg/kg i.m., one hour before testing, 0.6% acetic acid i.p., n = 7) [%]
CC[C@H](C)[C@H](N)C(=O)N[C@@H](CO)C(=O)N[C@H](C(=O)N[C@@H](CC(=O)O)C(=O)N1CCC[C@H]1C(=O)N1CCC[C@H]1C(=O)N[C@H]1CSSC[C@@H]2NC(=O)[C@H](CC(N)=O)NC(=O)CNC(=O)[C@H](CO)NC(=O)CNC(=O)[C@H](CC(=O)O)NC(=O)[C@H](CCCNC(=N)N)NC(=O)[C@H](Cc3c[nH]cn3)NC(=O)[C@H](Cc3ccc(O)cc3)NC(=O)[C@H](CSSC[C@@H](C(=O)NCC(=O)N[C@@H](C)C(=O)N[C@H](C(=O)O)C(C)C)NC(=O)CNC(=O)[C@H](Cc3ccc(O)cc3)NC(=O)[C@H](CCCCN)NC(=O)[C@H](CC(=O)O)NC(=O)[C@H](Cc3ccc(O)cc3)NC(=O)[C@H](C(C)C)NC2=O)NC(=O)[C@H](Cc2ccccc2)NC(=O)[C@H](CCCNC(=N)N)NC1=O)[C@@H](C)CC [A23K] (H-ISIDPPCRFCYHRDGSGNCVYDKYGCGAV-OH; disulfide 7-19, 10-26) | 3.58 ± 0.08 | 9.39 | 1.5 | significant reduction in writhing episodes only at a dose of 0.02 mg/kg | 
CC[C@H](C)[C@H](N)C(=O)N[C@@H](CO)C(=O)N[C@H](C(=O)N[C@@H](CC(=O)O)C(=O)N1CCC[C@H]1C(=O)N1CCC[C@H]1C(=O)N[C@H]1CSSC[C@@H]2NC(=O)[C@H](CC(N)=O)NC(=O)CNC(=O)[C@H](CO)NC(=O)CNC(=O)[C@H](CC(=O)O)NC(=O)[C@H](CCCNC(=N)N)NC(=O)[C@H](Cc3c[nH]cn3)NC(=O)[C@H](Cc3ccc(O)cc3)NC(=O)[C@H](CSSC[C@@H](C(=O)NCC(=O)N[C@@H](C)C(=O)N[C@H](C(=O)O)C(C)C)NC(=O)CNC(=O)[C@H](Cc3ccc(O)cc3)NC(=O)[C@H](C)NC(=O)[C@H](CC(=O)O)NC(=O)[C@H](Cc3ccc(O)cc3)NC(=O)[C@H](C(C)C)NC2=O)NC(=O)[C@H](Cc2ccccc2)NC(=O)[C@H](CCCNC(=N)N)NC1=O)[C@@H](C)CC [Ugr9-1] (H-ISIDPPCRFCYHRDGSGNCVYDAYGCGAV-OH; disulfide 7-19, 10-26) | 2.33 ± 0.17 | 14.2 ± 0.96 |  | significantly decreased the number of writhes at all three doses | 30
